Source: ChEMBL document CHEMBL3621133, “Macrocyclic derivatives of 6-methyluracil as ligands of the peripheral anionic site of acetylcholinesterase” (Medchemcomm, 2014)

How the values were obtained:
Acetylcholinesterase [1] = biological target: T1, Acetylcholinesterase (Homo sapiens, UniProt P22303); assay: Inhibition of AChE from human erythrocytes
Cholinesterase = Cholinesterase (Homo sapiens, UniProt P06276); assay: Inhibition of BChE from human plasma
Rattus norvegicus [2] = assay: […] in muscle action potential decrement in rat experimental autoimmune model of myasthenia gravis at 0.004 mg/kg, ip (reference value: 67.3 +/- 2.7%); type: functional
Rattus norvegicus [3] = assay: […] in muscle action potential decrement in rat experimental autoimmune model of myasthenia gravis at 0.008 mg/kg, ip (reference value: 67.3 +/- 2.7%); type: functional
[4] = Toxicity in ip dosed rat; type: organism-based; settings: in vivo
Acetylcholinesterase [5] = biological target: T1, Acetylcholinesterase; assay: Reversible inhibition of AChE from human erythrocytes by Lineweaver-Burk plot
Rattus norvegicus [6] = assay: […] in muscle action potential decrement in rat experimental autoimmune model of myasthenia gravis at 0.1 mg/kg, ip (reference value: 67.3 +/- 2.7%); type: functional
Rattus norvegicus [7] = assay: […] in muscle action potential decrement in rat experimental autoimmune model of myasthenia gravis at 0.3 mg/kg, ip (reference value: 67.3 +/- 2.7%); type: functional

Sequence of Cholinesterase (P06276 whole entry): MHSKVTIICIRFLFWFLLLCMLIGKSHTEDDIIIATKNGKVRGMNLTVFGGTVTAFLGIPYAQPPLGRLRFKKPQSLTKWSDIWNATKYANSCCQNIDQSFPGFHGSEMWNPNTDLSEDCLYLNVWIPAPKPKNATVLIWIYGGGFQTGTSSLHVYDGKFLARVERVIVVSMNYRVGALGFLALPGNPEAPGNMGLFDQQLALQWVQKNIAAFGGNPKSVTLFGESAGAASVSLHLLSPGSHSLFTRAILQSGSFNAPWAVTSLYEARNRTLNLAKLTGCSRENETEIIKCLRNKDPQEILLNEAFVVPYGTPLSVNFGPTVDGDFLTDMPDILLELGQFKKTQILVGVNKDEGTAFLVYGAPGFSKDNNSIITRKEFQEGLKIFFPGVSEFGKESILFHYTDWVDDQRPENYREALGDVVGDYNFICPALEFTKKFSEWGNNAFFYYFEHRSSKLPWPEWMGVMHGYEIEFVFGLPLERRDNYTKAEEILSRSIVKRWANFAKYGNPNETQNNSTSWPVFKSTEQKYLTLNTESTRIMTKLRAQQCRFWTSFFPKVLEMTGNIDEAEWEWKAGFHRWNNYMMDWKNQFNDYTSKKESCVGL
T1 sequence (P22303 whole entry): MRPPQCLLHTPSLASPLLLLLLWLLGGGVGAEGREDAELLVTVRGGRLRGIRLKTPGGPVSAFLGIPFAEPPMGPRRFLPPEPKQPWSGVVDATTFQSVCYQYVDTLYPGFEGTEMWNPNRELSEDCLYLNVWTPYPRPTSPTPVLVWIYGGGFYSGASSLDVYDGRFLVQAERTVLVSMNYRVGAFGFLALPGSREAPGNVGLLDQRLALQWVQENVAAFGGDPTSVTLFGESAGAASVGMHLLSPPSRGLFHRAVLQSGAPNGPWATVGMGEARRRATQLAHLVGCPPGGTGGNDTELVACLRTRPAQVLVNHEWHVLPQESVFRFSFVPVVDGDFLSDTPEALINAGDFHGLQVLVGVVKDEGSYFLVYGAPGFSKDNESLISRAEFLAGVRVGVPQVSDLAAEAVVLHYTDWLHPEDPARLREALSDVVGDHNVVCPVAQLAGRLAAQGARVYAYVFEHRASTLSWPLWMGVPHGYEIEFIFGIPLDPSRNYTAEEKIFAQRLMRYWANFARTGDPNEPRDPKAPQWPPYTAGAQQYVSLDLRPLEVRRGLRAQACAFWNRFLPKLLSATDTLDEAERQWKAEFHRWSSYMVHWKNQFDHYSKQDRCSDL

SMILES	IC50 (Acetylcholinesterase [1]) [nM]	IC50 (Cholinesterase) [nM]	Activity (Rattus norvegicus [2]) [%]	Activity (Rattus norvegicus [3]) [%]	LD50 [4] [mg/kg]	Ki (Acetylcholinesterase [5]) [nM]	Activity (Rattus norvegicus [6]) [%]	Activity (Rattus norvegicus [7]) [%]
CC[N+](CC)(CCCCCn1c(C)cc(=O)n(CCCCC[N+](CC)(CC)Cc2ccccc2[N+](=O)[O-])c1=O)Cc1ccccc1[N+](=O)[O-].[Br-].[Br-]	0.14	10000	83.25	95.41	0.008	0.08		
CC[N+]1(Cc2ccccc2[N+](=O)[O-])CCCCCC[N+](CC)(Cc2ccccc2[N+](=O)[O-])CCCCCn2c(=O)cc(C)n(c2=O)CCCCC1 (stereo not given)	59	9200						
CC[N+]1(Cc2ccccc2[N+](=O)[O-])CCCCCn2c(C)cc(=O)n(c2=O)CCCCC[N+](CC)(Cc2ccccc2[N+](=O)[O-])Cc2ccc(cc2)C1.[Br-].[Br-] (stereo not given)	7	1200			15.5	50.1	75	95.4
CC[N+]1(Cc2ccccc2[N+](=O)[O-])CCCCCn2c(C)cc(=O)n(c2=O)CCCCC[N+](CC)(Cc2ccccc2[N+](=O)[O-])CCCCCn2c(=O)cc(C)n(c2=O)CCCCC1 (stereo not given)	130	10000						
CC[N+]1(Cc2ccccc2[N+](=O)[O-])CCCCCn2c(C)c3c(=O)n(c2=O)CCCCC[N+](CC)(Cc2ccccc2[N+](=O)[O-])CCCCCn2c(C)c(c(=O)n(c2=O)CCCCC1)C3 (stereo not given)	4000	20000						
CN(C)C(=O)Oc1ccc[n+](C)c1.[Br-] [PYRIDOSTIGMINE BROMIDE]					2.7		91.3	
